Key:
[1] = target: Mitogen-activated protein kinase 9 (Homo sapiens, UniProt P45984); test: Inhibition of JNK2
[2] = Drug level in LPS-stimulated OFI mouse plasma at 100 mg/kg, po after 2 hrs by LC-MS/MS analysis; format: ADME, organism-based; design: dose 100 mg/kg, route oral
[3] = target: T1, MAP kinase-activated protein kinase 2 (Homo sapiens, UniProt P49137); test: Inhibition of MK2 in human THP-1 cells assessed as inhibition of anisomycin stimulated ser78-hsp27 phosphorylation after 10 mins by FACS analysis; format: cell-based
T1 sequence (P49137 whole entry): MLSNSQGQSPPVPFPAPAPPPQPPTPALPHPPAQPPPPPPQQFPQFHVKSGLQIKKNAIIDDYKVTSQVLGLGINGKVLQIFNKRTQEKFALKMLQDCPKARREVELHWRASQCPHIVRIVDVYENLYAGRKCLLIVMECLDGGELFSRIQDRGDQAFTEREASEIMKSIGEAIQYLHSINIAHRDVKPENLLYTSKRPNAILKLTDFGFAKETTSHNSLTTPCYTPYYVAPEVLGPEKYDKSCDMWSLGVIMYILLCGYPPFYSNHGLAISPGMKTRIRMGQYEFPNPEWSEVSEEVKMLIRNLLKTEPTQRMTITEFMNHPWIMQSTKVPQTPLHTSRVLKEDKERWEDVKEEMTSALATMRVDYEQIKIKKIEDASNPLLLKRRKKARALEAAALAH

[4] = test system: PBMC; test: Antiinflammatory activity against LPS-induced TNFalpha release in human PBMC preincubated for 30 mins measured after 3 hrs of LPS stimulation; format: functional, cell-based
[5] = test system: Mus musculus; test: Antiinflammatory activity in OFI mouse assessed as inhibition of LPS-induced TNFalpha release at 100 mg/kg, po dosed 1 hr before LPS challenge and measured after 1 hr post LPS challenge by ELISA; format: functional
[6] = target: T1, MAP kinase-activated protein kinase 2; test: Inhibition of human MK2 using hsp27 peptide biotinyl-AYSRALSRQLSSGVSEIRCOOH as substrate after 45 mins by FRET assay

Chain of Mitogen-activated protein kinase 9 (P45984 whole entry): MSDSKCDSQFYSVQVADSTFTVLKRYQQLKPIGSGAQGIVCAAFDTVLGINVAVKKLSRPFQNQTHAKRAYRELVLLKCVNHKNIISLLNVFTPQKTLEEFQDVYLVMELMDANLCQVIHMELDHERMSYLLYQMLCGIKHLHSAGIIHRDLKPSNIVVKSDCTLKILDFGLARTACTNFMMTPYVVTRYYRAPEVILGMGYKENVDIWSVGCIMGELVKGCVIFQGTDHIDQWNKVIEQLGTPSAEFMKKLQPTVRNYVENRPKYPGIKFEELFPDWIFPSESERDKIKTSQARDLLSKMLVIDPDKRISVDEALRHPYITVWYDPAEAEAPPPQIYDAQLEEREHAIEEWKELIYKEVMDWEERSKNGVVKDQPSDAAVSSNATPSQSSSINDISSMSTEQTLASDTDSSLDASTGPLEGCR

Structure (SMILES)	IC50 [1]	concentration at 2 h [2]	IC50 [3]	IC50 [6]	IC50 [4]	inhibition in vivo at 100 mg/kg [5]
O=C1NCCc2[nH]c3c(ccc4cnc(-c5cncc(OCCN6CCOCC6)c5)cc43)c21	418 nM		2500 nM	10 nM	283 nM	
CNCc1[nH]c2c(ccc3cnc(/C=C/c4ccccc4)cc32)c1C(=O)O				60 nM	1240 nM	
O=C1NCCc2[nH]c3c(ccc4cnc(/C=C/c5cccc(CCN6CCOCC6)c5)cc43)c21	76 nM			5 nM	32 nM	
O=C1NCCCc2[nH]c3c(ccc4cnc(-c5cncc(OCCN6CCOCC6)c5)cc43)c21	3170 nM		> 30000 nM	80 nM	8600 nM	
O=C1NOCc2[nH]c3c(ccc4cnc(/C=C/c5ccccc5)cc43)c21				25 nM	46 nM	
NCc1[nH]c2c(ccc3cnc(/C=C/c4ccccc4)cc32)c1C(=O)O				14 nM	735 nM	
O=C1NCCCc2[nH]c3c(ccc4cnc(/C=C/c5cccc(CCN6CCOCC6)c5)cc43)c21	700 nM			172 nM	> 1000 nM	
O=C1NCCc2[nH]c3c(ccc4cnc(/C=C/c5ccc(CN6CCOCC6)cc5)cc43)c21	198 nM			1 nM	9 nM	
O=C1NCCCc2[nH]c3c(ccc4cnc(-c5ccccc5OCCN5CCOCC5)cc43)c21				167 nM	> 3000 nM	
O=C1NCc2[nH]c3c(ccc4cnc(/C=C/c5ccc(CN6CCOCC6)cc5)cc43)c21	22 nM			8 nM	5 nM	
O=C1NCc2[nH]c3c(ccc4cnc(/C=C/c5cccc(CCN6CCOCC6)c5)cc43)c21	34 nM			10 nM	14 nM	
O=C1NCCCc2[nH]c3c(ccc4cnc(/C=C/c5ccc(CN6CCOCC6)cc5)cc43)c21	980 nM			253 nM	140 nM	
O=C1NCCCc2[nH]c3c(ccc4cnc(/C=C/c5ccccc5)cc43)c21	85 nM			116 nM	202 nM	
CN1Cc2[nH]c3c(ccc4cnc(/C=C/c5ccccc5)cc43)c2C1=O				1190 nM		
O=C1NCc2[nH]c3c(ccc4cnc(-c5cncc(OCCN6CCOCC6)c5)cc43)c21	75 nM		9330 nM	5 nM	556 nM	
O=C1NCCc2[nH]c3c(ccc4cnc(-c5cccc(OCCN6CCOCC6)c5)cc43)c21	269 nM		1300 nM	16 nM	294 nM	

Continued, in another order:

IC50 [1]	concentration at 2 h [2]	IC50 [3]	IC50 [6]	Structure (SMILES)	IC50 [4]	inhibition in vivo at 100 mg/kg [5]
2200 nM	13 µM	5800 nM	160 nM	COc1ccc(-c2cc3c(ccc4c5c([nH]c43)CCC5=O)cn2)cc1F	1400 nM	73%
30 nM		5080 nM	85 nM	O=C1NCc2[nH]c3c(ccc4cnc(-c5ccccc5F)cc43)c21	912 nM	
2700 nM		8300 nM	96 nM	COCCOc1cncc(-c2cc3c(ccc4c5c([nH]c43)CCCNC5=O)cn2)c1	8380 nM	
			900 nM	O=C1NCc2[nH]c3c(ccc4cnc(-c5ccccc5C(F)(F)F)cc43)c21		
649 nM		700 nM	12 nM	COCCOc1cncc(-c2cc3c(ccc4c5c([nH]c43)CCNC5=O)cn2)c1	260 nM	
11 nM		1280 nM	32 nM	O=C1NCc2[nH]c3c(ccc4cnc(-c5cccc(OCCN6CCOCC6)c5)cc43)c21	280 nM	
547 nM		875 nM	23 nM	COc1ccc(-c2cc3c(ccc4c5c([nH]c43)CN(C)NC5=O)cn2)cc1	2360 nM	
1420 nM		500 nM	15 nM	COc1ccc(-c2cc3c(ccc4c5c([nH]c43)CCNC5=O)cn2)cc1F	97 nM	
1 nM			73 nM	O=C1NCc2[nH]c3c(ccc4cnc(Nc5cccc(F)c5)cc43)c21	15 nM	
			72 nM	COc1ccc(-c2cc3c(ccc4c5c([nH]c43)CCCNC5=O)cn2)cc1	580 nM	
38 nM		1680 nM	5 nM	COCCOc1cncc(-c2cc3c(ccc4c5c([nH]c43)CNC5=O)cn2)c1	416 nM	
			27 nM	COc1ccc(-c2cc3c(ccc4c5c([nH]c43)CNC5=O)cn2)cc1	198 nM	
2 nM			10 nM	O=C1NCc2[nH]c3c(ccc4cnc(/C=C/c5ccccc5)cc43)c21	14 nM	
